Test results as given in ChEMBL document CHEMBL5046233, “Nitroxoline and its derivatives are potent inhibitors of metallo-β-lactamases” (Eur J Med Chem, 2022).
In brackets after ≈: the same amount, converted by molar mass. Activity calls are given as the source filed them. The rule behind the calls is not given here.

Assays:
[1] = Inhibition of recombinant NDM-1 (unknown origin) using fluorocillin as substrate at 30 uM incubated for 30 mins by fluorescence based assay; conditions: Bacteria
[2] = Inhibition of recombinant NDM-1 (unknown origin) using fluorocillin as substrate at 10 uM incubated for 30 mins by fluorescence based assay; conditions: Bacteria
[3] = Inhibition of recombinant NDM-1 (unknown origin) using fluorocillin as substrate at 3 uM incubated for 30 mins by fluorescence based assay; conditions: Bacteria
Bacteria [4] = assay: Inhibition of recombinant VIM-1 (unknown origin) using fluorocillin as substrate at 30 uM incubated for 30 mins by fluorescence based assay
Bacteria [5] = assay: Inhibition of recombinant VIM-1 (unknown origin) using fluorocillin as substrate at 10 uM incubated for 30 mins by fluorescence based assay
Bacteria [6] = assay: Inhibition of recombinant VIM-1 (unknown origin) using fluorocillin as substrate at 3 uM incubated for 30 mins by fluorescence based assay
Bacteria [7] = assay: Inhibition of recombinant IMP-1 (unknown origin) using fluorocillin as substrate at 30 uM incubated for 30 mins by fluorescence based assay
Bacteria [8] = assay: Inhibition of recombinant IMP-1 (unknown origin) using fluorocillin as substrate at 10 uM incubated for 30 mins by fluorescence based assay
Bacteria [9] = assay: Inhibition of recombinant IMP-1 (unknown origin) using fluorocillin as substrate at 3 uM incubated for 30 mins by fluorescence based assay
[10] = Cytotoxicity against human HUVEC cells assessed as metabolic activity measured after 24 hrs by cell-titer blue assay; format: toxicity, cell-based
Escherichia coli [11] = assay: Antimicrobial activity against Escherichia coli T2359 expressing NDM-1 assessed as inhibition of bacterial growth by CLSI protocol based broth microdilution assay; format: functional
Escherichia coli [12] = assay: Antimicrobial activity against Escherichia coli T2544 expressing VIM-1 assessed as inhibition of bacterial growth by CLSI protocol based broth microdilution assay; format: functional
Klebsiella pneumoniae [13] = assay: Antimicrobial activity against Klebsiella pneumoniae clinical isolate T2301 expressing NDM-1 assessed as inhibition of bacterial growth by CLSI protocol based broth microdilution assay; format: functional
Escherichia coli [14] = assay: Antimicrobial activity against Escherichia coli clinical isolate T2228 expressing VIM-1 assessed as inhibition of bacterial growth by CLSI protocol based broth microdilution assay; format: functional
Serratia marcescens = assay: Antimicrobial activity against Serratia marcescens T2352 expressing NDM-1 assessed as inhibition of bacterial growth by CLSI protocol based broth microdilution assay; format: functional
Enterobacter cloacae [15] = assay: Antimicrobial activity against Enterobacter cloacae T2311 expressing NDM-1 assessed as inhibition of bacterial growth by CLSI protocol based broth microdilution assay; format: functional
Escherichia coli [16] = assay: Antimicrobial activity against Escherichia coli T2351 expressing NDM-5 assessed as inhibition of bacterial growth by CLSI protocol based broth microdilution assay; format: functional
Pseudomonas aeruginosa [17] = assay: Antimicrobial activity against Pseudomonas aeruginosa T2325 expressing IMP-1 assessed as inhibition of bacterial growth by CLSI protocol based broth microdilution assay; format: functional
Pseudomonas aeruginosa [18] = assay: Antimicrobial activity against Pseudomonas aeruginosa T1098 expressing IMP-7 assessed as inhibition of bacterial growth by CLSI protocol based broth microdilution assay; format: functional
Citrobacter freundii [19] = assay: Antimicrobial activity against Citrobacter freundii T2354 expressing VIM-4 assessed as inhibition of bacterial growth by CLSI protocol based broth microdilution assay; format: functional
Enterobacter cloacae [20] = assay: Antimicrobial activity against Enterobacter cloacae T2353 expressing VIM-1 assessed as inhibition of bacterial growth by CLSI protocol based broth microdilution assay; format: functional
Pseudomonas aeruginosa [21] = assay: Antimicrobial activity against Pseudomonas aeruginosa T2357 expressing VIM-1 assessed as inhibition of bacterial growth by CLSI protocol based broth microdilution assay; format: functional
Klebsiella pneumoniae [22] = assay: Antimicrobial activity against Klebsiella pneumoniae T2216 expressing VIM-1 assessed as inhibition of bacterial growth by CLSI protocol based broth microdilution assay; format: functional
Pseudomonas aeruginosa [23] = assay: Antimicrobial activity against Pseudomonas aeruginosa T2217 expressing VIM-2 assessed as inhibition of bacterial growth by CLSI protocol based broth microdilution assay; format: functional
Pseudomonas aeruginosa [24] = assay: Antimicrobial activity against Pseudomonas aeruginosa T2282 expressing VIM-2 assessed as inhibition of bacterial growth by CLSI protocol based broth microdilution assay; format: functional
Pseudomonas aeruginosa [25] = assay: Antimicrobial activity against Pseudomonas aeruginosa T2283 expressing VIM-2 assessed as inhibition of bacterial growth by CLSI protocol based broth microdilution assay; format: functional
Pseudomonas aeruginosa [26] = assay: Antimicrobial activity against Pseudomonas aeruginosa T2229 expressing SPM-1 assessed as inhibition of bacterial growth by CLSI protocol based broth microdilution assay; format: functional
Enterobacter cloacae [27] = assay: Antimicrobial activity against Enterobacter cloacae T2218 expressing GIM-1 assessed as inhibition of bacterial growth by CLSI protocol based broth microdilution assay; format: functional
Escherichia coli [28] = assay: Antimicrobial activity against Escherichia coli T2435 expressing KPC-2 assessed as inhibition of bacterial growth by CLSI protocol based broth microdilution assay; format: functional
Citrobacter freundii [29] = assay: Antimicrobial activity against Citrobacter freundii expressing T2431 KPC-3 assessed as inhibition of bacterial growth by CLSI protocol based broth microdilution assay; format: functional
Klebsiella pneumoniae [30] = assay: Antimicrobial activity against Klebsiella pneumoniae T2432 expressing KPC-9 assessed as inhibition of bacterial growth by CLSI protocol based broth microdilution assay; format: functional
Escherichia coli [31] = assay: Antimicrobial activity against Escherichia coli T2433 expressing OXA-48 assessed as inhibition of bacterial growth by CLSI protocol based broth microdilution assay; format: functional
Klebsiella pneumoniae [32] = assay: Antimicrobial activity against Klebsiella pneumoniae T2301 expressing NDM-1 assessed as assessed as inhibition of bacterial growth at 0.5XMIC measured after 24 hrs by time-kill assay; format: functional, organism-based
Escherichia coli [33] = assay: Antimicrobial activity against Escherichia coli T2359 expressing VIM-1 assessed as assessed as inhibition of bacterial growth at 0.5XMIC measured after 24 hrs by time-kill assay; format: functional, organism-based
Klebsiella pneumoniae [34] = assay: Antimicrobial activity against Klebsiella pneumoniae T2301 expressing NDM-1 assessed as inhibition of bacterial growth at 0.5XMIC for 6 hrs by CLSI protocol based broth microdilution assay; format: functional, organism-based
Escherichia coli [35] = assay: Antimicrobial activity against Escherichia coli T2359 expressing VIM-1 assessed as inhibition of bacterial growth at 0.5XMIC for 6 hrs by CLSI protocol based broth microdilution assay; format: functional, organism-based
Escherichia coli [36] = conditions: T2228

With `O=[N+]([O-])c1ccc(O)c2ncccc12` [NITROXOLINE] the inhibition [1] was 99%, the inhibition [2] was 81% and the inhibition [3] was less than 20%. For the same compound, the inhibition (Bacteria [4]) was 75%, the inhibition (Bacteria [5]) was 31% and the inhibition (Bacteria [6]) was less than 20%. The inhibition (Bacteria [7]) was 95%, the inhibition (Bacteria [8]) was 42% and the inhibition (Bacteria [9]) was less than 20%. It also gave an IC50 at 24 h [10] of 283 mg/L (≈ 1490 µM).
For `C[C@@H](O)[C@H]1C(=O)N2C(C(=O)O)=C(SCCNC=N)C[C@H]12` [IMIPENEM ANHYDROUS], the MIC (Escherichia coli [11]) was 0.128 mg/L (≈ 0.428 µM), the MIC (Escherichia coli [12]) was 0.032 mg/L (≈ 0.107 µM) and the MIC (Klebsiella pneumoniae [13]) was 0.016 mg/L (≈ 0.0534 µM). It also gave an MIC (Escherichia coli [14]) of 0.008 mg/L (≈ 0.0267 µM), an MIC (Serratia marcescens) of 0.256 mg/L (≈ 0.855 µM) and an MIC (Enterobacter cloacae [15]) of 0.008 mg/L (≈ 0.0267 µM). It also gave an MIC (Escherichia coli [16]) of 0.008 mg/L (≈ 0.0267 µM), an MIC (Pseudomonas aeruginosa [17]) of 0.032 mg/L (≈ 0.107 µM) and an MIC (Pseudomonas aeruginosa [18]) of 0.128 mg/L (≈ 0.428 µM). For the same compound, the MIC (Citrobacter freundii [19]) was 2 mg/L (≈ 6.68 µM), the MIC (Enterobacter cloacae [20]) was 0.008 mg/L (≈ 0.0267 µM) and the MIC (Pseudomonas aeruginosa [21]) was 0.256 mg/L (≈ 0.855 µM). It also gave an MIC (Klebsiella pneumoniae [22]) of 0.004 mg/L (≈ 0.0134 µM), an MIC (Pseudomonas aeruginosa [23]) of 0.256 mg/L (≈ 0.855 µM) and an MIC (Pseudomonas aeruginosa [24]) of 0.256 mg/L (≈ 0.855 µM). The MIC (Pseudomonas aeruginosa [25]) was 0.032 mg/L (≈ 0.107 µM), the MIC (Pseudomonas aeruginosa [26]) was 0.512 mg/L (≈ 1.71 µM) and the MIC (Enterobacter cloacae [27]) was 0.002 mg/L (≈ 0.00668 µM). The MIC (Escherichia coli [28]) was 0.004 mg/L (≈ 0.0134 µM), the MIC (Citrobacter freundii [29]) was 0.008 mg/L (≈ 0.0267 µM) and the MIC (Klebsiella pneumoniae [30]) was 0.032 mg/L (≈ 0.107 µM). The MIC (Escherichia coli [31]) was 0.002 mg/L (≈ 0.00668 µM), the inhibition (Klebsiella pneumoniae [32]) was “Active” and the inhibition (Escherichia coli [33]) was “Active”. For the same compound, the inhibition (Klebsiella pneumoniae [34]) was “Active” and the inhibition (Escherichia coli [35]) was “Active”.
In the case of `C[C@@H](O)[C@H]1C(=O)N2C(C(=O)O)=C(S[C@@H]3CN[C@H](C(=O)N(C)C)C3)[C@H](C)[C@H]12` [MEROPENEM], the MIC (Klebsiella pneumoniae [13]) is reported as 0.128 mg/L (≈ 0.334 µM) and the MIC (Escherichia coli [14]) is reported as 0.008 mg/L (≈ 0.0209 µM).
GENTAMICIN gave an MIC (Escherichia coli [36]) of 0.002 mg/L.
